Results reported in patent US9783585B2, “Compositions and methods for increasing the expression and signalling of proteins on cell surfaces” (JOHNS HOPKINS UNIVERSITY, priority 2013, dated 2017).

Experiments:
[1] = biological target: T1, mOREG (Mus musculus, UniProt Q920P2); assay: Luciferase reporter assay (CRE Firefly:Renilla), mOREG constructs; format: cell-based; conditions: Rho-mOREG, Lucy-mOREG and Lucy-Rho-mOREG, no RTP1S, eugenol 100-300 μM, P≦0.05, 300 μM vs 0 μM
T1 construct: The mOR-EG full-length construct, containing N-terminal Flag/Rho tags; expressed in transfected cells; host or cells: HEK293T
T1 sequence (Q920P2 1-313): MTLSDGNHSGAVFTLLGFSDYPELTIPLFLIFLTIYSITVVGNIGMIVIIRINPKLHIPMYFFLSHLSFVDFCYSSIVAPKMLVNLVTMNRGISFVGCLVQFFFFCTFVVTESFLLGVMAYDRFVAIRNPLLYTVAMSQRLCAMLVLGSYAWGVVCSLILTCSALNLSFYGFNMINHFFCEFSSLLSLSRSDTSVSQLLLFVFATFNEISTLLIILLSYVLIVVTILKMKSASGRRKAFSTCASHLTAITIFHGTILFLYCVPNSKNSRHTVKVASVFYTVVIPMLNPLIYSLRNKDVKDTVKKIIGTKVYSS
Protocol: (§1) Luciferase Assay. The luciferase assay was performed as previously described. Briefly, ORs were transfected into HEK293T cells along with constructs encoding for CREB-dependent luciferase (Firefly) and a constitutively expressed luciferase (Renilla). OR activation leads to a rise in cAMP which drives an increase in Firefly luciferase expression. Firefly activity is normalized to the activity of the Renilla luciferase to control for variation in cell number and transfection efficiency. Data were collected using a FLUOstar Omega automated platereader (BMG LabTech, Cary, N.C.). For some experiments, RTP1S was also transfected.
Statistical Analysis. One-way ANOVA analysis followed by the Student-Newman Keuls test was performed on the luciferase reporter assay to compare the doses of isovaleric acid (0.1-5 mM) or eugenol (100-300 μM) to the non-treated control (0 μM). As each condition was performed in triplicate, the analyses were done with an n=3, and P values≦0.05 were deemed significant. One-way ANOVE followed by Student-Newman Keuls was also used to analyze the surface expression data in FIG. 7. […]
As mOREG is one of the ORs that reach the cell surface under every condition tested, we expressed the OR with and without the Lucy and Rho tags and assessed its response to eugenol.

[2] = biological target: T2, Olfr691 (Mus musculus, UniProt Q8VGW5); assay: Luciferase reporter assay (CRE Firefly:Renilla), Olfr691 constructs; format: cell-based; conditions: 0.1-5 mM isovaleric acid
T2 construct: The other full-length ORs were amplified using primers which added appropriate restriction sites; expressed in transfected cells; host or cells: HEK293T
T2 sequence (Q8VGW5 1-322): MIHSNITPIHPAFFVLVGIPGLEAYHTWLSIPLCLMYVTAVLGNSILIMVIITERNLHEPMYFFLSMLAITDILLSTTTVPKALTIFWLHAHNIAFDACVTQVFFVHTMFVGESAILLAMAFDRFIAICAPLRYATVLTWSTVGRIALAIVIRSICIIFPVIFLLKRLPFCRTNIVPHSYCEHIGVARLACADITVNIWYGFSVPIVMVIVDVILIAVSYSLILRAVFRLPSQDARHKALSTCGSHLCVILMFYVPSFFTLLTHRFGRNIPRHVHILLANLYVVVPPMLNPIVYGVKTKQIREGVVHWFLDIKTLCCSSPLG
Protocol: as §1
Statistical Analysis. One-way ANOVA analysis followed by the Student-Newman Keuls test was performed on the luciferase reporter assay to compare the doses of isovaleric acid (0.1-5 mM) or eugenol (100-300 μM) to the non-treated control (0 μM). As each condition was performed in triplicate, the analyses were done with an n=3, and P values≦0.05 were deemed significant. One-way ANOVE followed by Student-Newman Keuls was also used to analyze the surface expression data in FIG. 7. A Student T-Test was performed on the ELISA to assess the significance of the increased protein expression (Control construct vs. Lucy construct for each OR, n=4 for each condition). P values≦0.05 were deemed significant. In both the luciferase reporter assay and the ELISA, the error bars represent the SEM.
To determine whether Lucy-tagged ORs expressed on the cell surface can still respond to their ligands in the absence of RTP1S, and to ensure that the Lucy tag is not altering ligand binding or detection, we assayed for a functional ligand response using a luciferase reporter assay. In this assay, OR-ligand binding leads to an increase in cAMP which drives the expression of a CRE luciferase. An increase in the Firefly (CRE-dependent luciferase): Renilla (constitutively activated luciferase) ratio indicates OR activation. Previously, it was determined that Olfr691 responds to isovaleric acid. […]

OR activation (Firefly:Renilla ratio) ([2]; Lucy-Rho-Olfr691 with and without RTP, P<0.007 vs 0 mM)	OR activation (Firefly:Renilla ratio) ([2]; Rho-Olfr691 co-expressed with RTP1S, P≦0.002 vs 0 mM)	SMILES	OR activation (Firefly:Renilla ratio) [1]	OR activation (Firefly:Renilla ratio) ([2]; Rho-Olfr691 without RTP1S)
–	–	C=CCc1ccc(O)c(OC)c1 [eugenol]	dose-dependent activation	–
dose-dependent manner	dose-dependent increase	CC(C)CC(=O)O [isovaleric acid]	–	not significantly activated at any concentration
